Source: patent US10239869B2, “Sulfonamide compounds as voltage-gated sodium channel modulators” (LUPIN LIMITED, priority 2015, dated 2019)
One block for each compound: values may come before it.

Legend:
Nav 1.7 = Nav 1.7 (Homo sapiens (Human), UniProt Q15858); assay: Inhibition of sodium channels, Red Membrane Potential Dye FLIPR assay, veratridine depolarization; assay type: cell-based; details: HEK-293 cells overexpressing the channel; for IC50: read-out: Nav1.7 IC50
Nav 1.5 = Nav 1.5 (Homo sapiens (Human), UniProt Q14524); assay: as above; assay type: cell-based; details: HEK-293 cells overexpressing the channel; for IC50: read-out: Nav1.5 IC50 (bound given in μM)
Chain of Nav 1.5 (Q14524 whole entry): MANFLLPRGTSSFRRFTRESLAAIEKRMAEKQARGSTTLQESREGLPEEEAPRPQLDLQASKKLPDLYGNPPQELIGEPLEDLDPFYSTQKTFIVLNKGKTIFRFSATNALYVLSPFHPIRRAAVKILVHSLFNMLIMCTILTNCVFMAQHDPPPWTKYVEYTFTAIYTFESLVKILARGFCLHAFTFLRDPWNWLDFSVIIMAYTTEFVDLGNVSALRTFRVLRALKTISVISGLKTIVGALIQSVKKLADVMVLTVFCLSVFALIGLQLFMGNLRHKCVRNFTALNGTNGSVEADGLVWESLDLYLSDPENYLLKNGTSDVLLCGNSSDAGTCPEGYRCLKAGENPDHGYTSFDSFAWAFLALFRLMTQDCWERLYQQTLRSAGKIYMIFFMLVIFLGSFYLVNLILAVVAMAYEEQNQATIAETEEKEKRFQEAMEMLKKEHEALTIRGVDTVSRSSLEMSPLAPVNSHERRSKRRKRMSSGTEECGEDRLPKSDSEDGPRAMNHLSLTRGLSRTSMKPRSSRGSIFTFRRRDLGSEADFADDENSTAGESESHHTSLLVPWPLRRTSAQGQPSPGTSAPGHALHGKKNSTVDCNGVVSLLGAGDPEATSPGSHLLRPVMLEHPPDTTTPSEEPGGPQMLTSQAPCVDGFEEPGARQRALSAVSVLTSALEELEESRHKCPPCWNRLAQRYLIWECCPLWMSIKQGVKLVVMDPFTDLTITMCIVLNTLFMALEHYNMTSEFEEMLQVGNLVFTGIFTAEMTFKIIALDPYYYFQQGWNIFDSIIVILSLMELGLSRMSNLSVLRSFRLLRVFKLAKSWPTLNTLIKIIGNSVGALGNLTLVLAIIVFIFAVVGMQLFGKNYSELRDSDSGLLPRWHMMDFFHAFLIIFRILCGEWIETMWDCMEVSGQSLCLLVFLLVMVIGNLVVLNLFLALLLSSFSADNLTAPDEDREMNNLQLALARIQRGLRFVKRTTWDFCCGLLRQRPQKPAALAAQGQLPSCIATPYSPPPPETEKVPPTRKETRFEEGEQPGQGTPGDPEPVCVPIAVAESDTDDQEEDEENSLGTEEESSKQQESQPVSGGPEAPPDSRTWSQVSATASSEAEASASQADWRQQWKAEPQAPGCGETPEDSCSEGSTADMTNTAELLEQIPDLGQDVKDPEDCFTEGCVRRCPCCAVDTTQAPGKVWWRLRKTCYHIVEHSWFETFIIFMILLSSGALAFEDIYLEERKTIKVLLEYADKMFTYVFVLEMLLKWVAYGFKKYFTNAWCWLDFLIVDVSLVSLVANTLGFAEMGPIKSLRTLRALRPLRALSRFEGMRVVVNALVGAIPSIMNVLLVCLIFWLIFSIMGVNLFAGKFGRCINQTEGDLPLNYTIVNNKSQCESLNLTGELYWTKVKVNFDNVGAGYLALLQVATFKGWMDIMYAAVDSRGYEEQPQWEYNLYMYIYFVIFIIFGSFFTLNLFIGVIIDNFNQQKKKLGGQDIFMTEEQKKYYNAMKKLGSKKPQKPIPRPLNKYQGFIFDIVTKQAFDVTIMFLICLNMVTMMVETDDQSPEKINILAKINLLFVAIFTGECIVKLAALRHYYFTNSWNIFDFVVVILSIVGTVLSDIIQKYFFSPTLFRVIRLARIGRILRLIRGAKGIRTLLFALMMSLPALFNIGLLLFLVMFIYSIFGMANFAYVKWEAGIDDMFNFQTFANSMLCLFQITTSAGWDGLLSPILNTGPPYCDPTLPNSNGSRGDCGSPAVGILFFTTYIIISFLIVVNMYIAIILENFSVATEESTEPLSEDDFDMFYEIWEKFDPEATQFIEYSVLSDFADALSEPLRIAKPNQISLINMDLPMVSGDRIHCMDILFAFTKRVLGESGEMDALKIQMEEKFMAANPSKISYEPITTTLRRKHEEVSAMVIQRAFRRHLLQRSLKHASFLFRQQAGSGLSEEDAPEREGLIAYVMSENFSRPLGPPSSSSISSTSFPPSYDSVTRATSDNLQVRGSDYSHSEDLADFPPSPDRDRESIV

Chain of Nav 1.7 (Q15858 whole entry): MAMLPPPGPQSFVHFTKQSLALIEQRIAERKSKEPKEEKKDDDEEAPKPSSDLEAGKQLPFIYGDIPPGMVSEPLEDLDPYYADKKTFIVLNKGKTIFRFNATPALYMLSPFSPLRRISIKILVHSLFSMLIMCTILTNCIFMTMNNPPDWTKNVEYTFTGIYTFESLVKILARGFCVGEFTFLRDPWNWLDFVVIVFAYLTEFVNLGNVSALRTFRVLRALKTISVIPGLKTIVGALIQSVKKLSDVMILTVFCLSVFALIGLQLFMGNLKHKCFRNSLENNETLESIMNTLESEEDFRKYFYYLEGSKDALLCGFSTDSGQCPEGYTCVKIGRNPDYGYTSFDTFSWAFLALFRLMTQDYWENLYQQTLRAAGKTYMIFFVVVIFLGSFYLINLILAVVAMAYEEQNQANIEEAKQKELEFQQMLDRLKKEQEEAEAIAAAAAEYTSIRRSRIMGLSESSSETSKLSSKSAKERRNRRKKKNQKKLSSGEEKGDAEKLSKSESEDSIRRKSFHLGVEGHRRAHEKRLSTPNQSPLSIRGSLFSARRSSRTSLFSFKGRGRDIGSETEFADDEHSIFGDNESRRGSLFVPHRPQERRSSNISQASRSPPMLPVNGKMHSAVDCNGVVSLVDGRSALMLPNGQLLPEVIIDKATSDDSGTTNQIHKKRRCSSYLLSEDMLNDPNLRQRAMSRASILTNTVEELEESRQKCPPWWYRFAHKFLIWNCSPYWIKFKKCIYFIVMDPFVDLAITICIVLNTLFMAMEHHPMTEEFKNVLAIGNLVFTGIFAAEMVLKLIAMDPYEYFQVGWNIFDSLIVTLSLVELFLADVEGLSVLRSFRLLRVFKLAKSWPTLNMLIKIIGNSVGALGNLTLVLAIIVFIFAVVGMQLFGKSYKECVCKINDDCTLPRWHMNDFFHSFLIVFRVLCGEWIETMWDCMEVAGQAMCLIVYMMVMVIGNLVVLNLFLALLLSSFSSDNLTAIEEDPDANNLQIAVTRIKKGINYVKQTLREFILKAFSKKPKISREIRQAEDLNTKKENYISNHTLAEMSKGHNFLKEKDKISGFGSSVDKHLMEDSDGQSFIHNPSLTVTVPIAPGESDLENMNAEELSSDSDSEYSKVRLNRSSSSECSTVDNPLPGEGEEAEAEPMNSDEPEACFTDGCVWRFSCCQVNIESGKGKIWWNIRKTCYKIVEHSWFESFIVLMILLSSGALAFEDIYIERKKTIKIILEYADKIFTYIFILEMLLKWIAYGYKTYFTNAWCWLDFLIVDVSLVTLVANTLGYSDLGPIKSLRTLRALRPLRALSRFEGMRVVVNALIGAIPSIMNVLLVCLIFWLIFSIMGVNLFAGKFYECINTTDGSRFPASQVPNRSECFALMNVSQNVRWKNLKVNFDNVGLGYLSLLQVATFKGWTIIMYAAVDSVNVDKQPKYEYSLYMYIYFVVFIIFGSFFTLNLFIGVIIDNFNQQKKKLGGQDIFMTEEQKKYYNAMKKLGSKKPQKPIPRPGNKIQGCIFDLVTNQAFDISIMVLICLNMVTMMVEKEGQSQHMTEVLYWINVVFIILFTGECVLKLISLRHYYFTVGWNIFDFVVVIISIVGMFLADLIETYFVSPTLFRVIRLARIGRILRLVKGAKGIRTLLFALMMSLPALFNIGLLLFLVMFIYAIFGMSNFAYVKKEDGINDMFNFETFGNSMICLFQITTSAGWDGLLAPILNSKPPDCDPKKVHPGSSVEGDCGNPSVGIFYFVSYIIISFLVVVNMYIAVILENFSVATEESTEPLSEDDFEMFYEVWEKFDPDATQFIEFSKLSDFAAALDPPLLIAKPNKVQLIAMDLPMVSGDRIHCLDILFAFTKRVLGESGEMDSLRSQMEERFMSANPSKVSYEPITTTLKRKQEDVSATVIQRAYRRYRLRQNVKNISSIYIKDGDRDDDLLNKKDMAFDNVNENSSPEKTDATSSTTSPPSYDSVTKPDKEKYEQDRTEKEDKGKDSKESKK

Structure (SMILES): Cc1nc(-c2cc(C(F)(F)F)ccc2[C@@H]2CCOc3cc(S(=O)(=O)Nc4ncccn4)ccc32)cs1 [Example 63, (S&R)-4-(2-(2-Methylthiazol-4-yl)-4-(trifluoromethyl)phenyl)-N-(pyrimidin-2-yl)chroman-7-sulfonamide]
IC50 (Nav 1.7): 526 nM
IC50 (Nav 1.5): > 10 µM

Structure (SMILES): CCCc1cc(C(F)(F)F)ccc1[C@H]1CCOc2cc(S(=O)(=O)Nc3cccc(F)n3)ccc21 [Example-245, (S&R)—N-(6-fluoropyridin-2-yl)-4-(2-propyl-4-(trifluoromethyl)phenyl)chroman-7-sulfonamide]
IC50 (Nav 1.7): 41 nM
Nav1.5 % inhibition @ 10 μM (Nav 1.5): 75%

IC50 (Nav 1.7): 49 nM
Structure (SMILES): O=C1OCCN1c1cc(C(F)(F)F)ccc1[C@H]1CCOc2cc(S(=O)(=O)Nc3ncccn3)ccc21 (racemic) [Example-207, (R/S)-4-(2-(2-oxooxazolidin-3-yl)-4-(trifluoromethyl)phenyl)-N-(pyrimidin-2-yl)chroman-7-sulfonamide]
IC50 (Nav 1.5): > 10 µM

Structure (SMILES): O=C1CCCN1c1cc(C(F)(F)F)ccc1[C@@H]1CCOc2cc(S(=O)(=O)Nc3ncc(F)cn3)ccc21 [Example 113, (S&R)—N-(5-fluoropyrimidin-2-yl)-4-(2-(2-oxopyrrolidin-1-yl)-4-(trifluoromethyl)phenyl)chroman-7-sulfonamide]
Nav1.7 inhibition @ 10 μM (Nav 1.7): 65%
IC50 (Nav 1.5): > 10 µM

Structure (SMILES): CS(=O)(=O)CCc1cc(C(F)(F)F)ccc1[C@@H]1CCOc2cc(S(=O)(=O)Nc3ncc(F)cn3)ccc21 [Example 85, (S&R)—N-(5-Fluoropyrimidin-2-yl)-4-(2-(2-(methylsulfonyl)ethyl)-4-(trifluoromethyl)phenyl)chroman-7-sulfonamide]
IC50 (Nav 1.7): 2720 nM
IC50 (Nav 1.5): > 10 µM

Structure (SMILES): O=S(=O)(Nc1ncccn1)c1ccc2c(c1)OCC[C@H]2c1ccc(C(F)(F)F)cc1C1CCOCC1 [Example 109, (S&R)—N-(pyrimidin-2-yl)-4-(2-(tetrahydro-2H-pyran-4-yl)-4-(trifluoromethyl)phenyl)chroman-7-sulfonamide]
IC50 (Nav 1.7): 740 nM
IC50 (Nav 1.5): > 10 µM

Structure (SMILES): Cc1ccc(NS(=O)(=O)c2ccc3c(c2)OCC[C@H]3c2ccc(C(F)(F)F)cc2-c2ccnn2C)nc1 [Example 21, (S&R)-4-(2-(1-methyl-1H-pyrazol-5-yl)-4-(trifluoromethyl)phenyl)-N-(5-methylpyridin-2-yl)chroman-7-sulfonamide]
IC50 (Nav 1.7): 4270 nM
Nav1.5 % inhibition @ 10 μM (Nav 1.5): 57%

IC50 (Nav 1.7): 184 nM
Structure (SMILES): O=S(=O)(Nc1ncccn1)c1ccc2c(c1)OCC[C@@H]2c1ccc(C(F)(F)F)cc1Cl (racemic) [Example 104, (S/R)-4-(2-Chloro-4-(trifluoromethyl)phenyl)-N-(pyrimidin-2-yl)chroman-7-sulfonamide]
IC50 (Nav 1.5): > 10 µM

Structure (SMILES): O=S(=O)(Nc1ncccn1)c1ccc2c(c1)OCC[C@H]2c1ccc(C(F)(F)F)cc1OC1CCOCC1 [Example-168, (R&S)—N-(pyrimidin-2-yl)-4-(2-((tetrahydro-2H-pyran-4-yl)oxy)-4-(trifluoromethyl)phenyl)chroman-7-sulfonamide]
IC50 (Nav 1.7): 3900 nM
IC50 (Nav 1.5): > 10 µM

Structure (SMILES): Cc1ccnc(NS(=O)(=O)c2ccc3c(c2)OCC[C@H]3c2ccc(C(F)(F)F)cc2-c2ccnn2C)n1 [Example 29, (S&R)-4-(2-(1-methyl-1H-pyrazol-5-yl)-4-(trifluoromethyl)phenyl)-N-(4-methylpyrimidin-2-yl)chroman-7-sulfonamide]
Nav1.7 inhibition @ 10 μM (Nav 1.7): 91%
IC50 (Nav 1.5): > 10 µM

IC50 (Nav 1.7): 147 nM
Structure (SMILES): O=S(=O)(Nc1ccncn1)c1ccc2c(c1)OCC[C@@H]2c1ccc(C(F)(F)F)cc1Cl (racemic) [Example 106, (S/R)-4-(2-Chloro-4-(trifluoromethyl)phenyl)-N-(pyrimidin-4-yl)chroman-7-sulfonamide]
IC50 (Nav 1.5): > 10 µM

Structure (SMILES): COCCOc1cc(C(F)(F)F)ccc1[C@@H]1CCOc2cc(S(=O)(=O)Nc3ncccn3)ccc21 [Example 124, (S&R)-4-(2-(2-methoxyethoxy)-4-(trifluoromethyl)phenyl)-N-(pyrimidin-2-yl)chroman-7-sulfonamide]
IC50 (Nav 1.7): 2230 nM
Nav1.5 % inhibition @ 10 μM (Nav 1.5): 71%

Structure (SMILES): Cc1cccc(NS(=O)(=O)c2ccc3c(c2)OCC[C@@H]3c2ccc(C(F)(F)F)cc2-c2ccnn2C)n1 [Example 20, (S&R)-4-(2-(1-methyl-1H-pyrazol-5-yl)-4-(trifluoromethyl)phenyl)-N-(6-methylpyridin-2-yl)chroman-7-sulfonamide]
IC50 (Nav 1.7): 245 nM

Structure (SMILES): O=S1(=O)CCN(c2cc(C(F)(F)F)ccc2[C@H]2CCOc3cc(S(=O)(=O)Nc4cccc(F)n4)ccc32)CC1 (racemic) [Example-235, (R/S)-4-(2-(1,1-dioxidothiomorpholino)-4-(trifluoromethyl)phenyl)-N-(6-fluoropyridin-2-yl)chroman-7-sulfonamide]
IC50 (Nav 1.5): > 10 µM

Structure (SMILES): O=S1(=O)CCN(c2cc(C(F)(F)F)ccc2[C@H]2CCOc3cc(S(=O)(=O)Nc4ncccn4)ccc32)CC1 [Example-233, (S&R)-4-(2-(1,1-dioxidothiomorpholino)-4-(trifluoromethyl)phenyl)-N-(pyrimidin-2-yl)chroman-7-sulfonamide]
IC50 (Nav 1.5): > 10 µM

Structure (SMILES): Cn1nccc1-c1cc(C(F)(F)F)ccc1[C@H]1CCOc2cc(S(=O)(=O)Nc3cnccn3)ccc21 [Example 12, (S&R)-4-(2-(1-Methyl-1H-pyrazol-5-yl)-4-(trifluoromethyl)phenyl)-N-(pyrazin-2-yl) chromane-7-sulfonamide]
IC50 (Nav 1.5): > 10 µM

Structure (SMILES): O=S(=O)(Nc1ncc(F)cn1)c1ccc2c(c1)OCC[C@H]2c1ccc(C(F)(F)F)cc1-n1ccnn1 [Example 55, (S&R)-4-(2-(1H-1,2,3-Triazol-1-yl)-4-(trifluoromethyl)phenyl)-N-(5-fluoropyrimidin-2-yl) chromane-7-sulfonamide]
IC50 (Nav 1.5): > 10 µM

Structure (SMILES): O=C(O)c1ccc(-c2cc(C(F)(F)F)ccc2[C@@H]2CCOc3cc(S(=O)(=O)Nc4ncccn4)ccc32)cc1 [Example-187, (S&R)-2′-(7-(N-(pyrimidin-2-yl)sulfamoyl)chroman-4-yl)-5′-(trifluoromethyl)-[1,1′-biphenyl]-4-carboxylic acid]
IC50 (Nav 1.7): 2600 nM

Structure (SMILES): Cn1nccc1-c1cc(C(F)(F)F)ccc1[C@H]1CCOc2cc(S(=O)(=O)Nc3ccncn3)ccc21 [Example 10, (S&R)-4-(2-(1-Methyl-1H-pyrazol-5-yl)-4-(trifluoromethyl)phenyl)-N-(pyrimidin-4-yl) chroman-7-sulfonamide]
IC50 (Nav 1.5): > 10 µM

Structure (SMILES): Cn1nccc1-c1cc(C(F)(F)F)ccc1[C@@H]1CCOc2cc(S(=O)(=O)Nc3ccc(F)cn3)ccc21 [Example 5, (S&R)—N-(5-Fluoropyridin-2-yl)-4-(2-(1-methyl-1H-pyrazol-5-yl)-4-(trifluoromethyl)phenyl)chroman-7-sulfonamide]
Nav1.5 % inhibition @ 10 μM (Nav 1.5): 58%

Structure (SMILES): O=S(=O)(Nc1cccc(F)n1)c1ccc2c(c1)OCC[C@H]2c1ccc(C(F)(F)F)cc1-n1ccnn1 [Example 59, (S&R)-4-(2-(1H-1,2,3-Triazol-1-yl)-4-(trifluoromethyl)phenyl)-N-(6-fluoropyridin-2-yl) chromane-7-sulfonamide]
IC50 (Nav 1.5): > 10 µM

Structure (SMILES): Cn1nccc1-c1cc(C(F)(F)F)ccc1[C@H]1CCOc2cc(S(=O)(=O)Nc3cc(F)ccn3)ccc21 [Example 4, (S&R)—N-(4-Fluoropyridin-2-yl)-4-(2-(1-methyl-1H-pyrazol-5-yl)-4-(trifluoromethyl)phenyl)chroman-7-sulfonamide]
Nav1.5 % inhibition @ 10 μM (Nav 1.5): 57%
